Results on 35 compounds are retold here after patent US20240316047A1, “INHIBITORS OF RNA HELICASE DHX9 AND USES THEREOF” (ACCENT THERAPEUTICS, INC., priority 2022, published 2024).

The assay deals with Human recombinant DHX9 protein (Homo sapiens (Human), UniProt Q08211). Kind of assay: DHX9 ATPase assay (ADP-Glo). It counts as biochemical. As to conditions: for IC50: read-out: DHX9 Biochemical Inflection Point.
Sequence of Human recombinant DHX9 protein (Q08211 whole entry): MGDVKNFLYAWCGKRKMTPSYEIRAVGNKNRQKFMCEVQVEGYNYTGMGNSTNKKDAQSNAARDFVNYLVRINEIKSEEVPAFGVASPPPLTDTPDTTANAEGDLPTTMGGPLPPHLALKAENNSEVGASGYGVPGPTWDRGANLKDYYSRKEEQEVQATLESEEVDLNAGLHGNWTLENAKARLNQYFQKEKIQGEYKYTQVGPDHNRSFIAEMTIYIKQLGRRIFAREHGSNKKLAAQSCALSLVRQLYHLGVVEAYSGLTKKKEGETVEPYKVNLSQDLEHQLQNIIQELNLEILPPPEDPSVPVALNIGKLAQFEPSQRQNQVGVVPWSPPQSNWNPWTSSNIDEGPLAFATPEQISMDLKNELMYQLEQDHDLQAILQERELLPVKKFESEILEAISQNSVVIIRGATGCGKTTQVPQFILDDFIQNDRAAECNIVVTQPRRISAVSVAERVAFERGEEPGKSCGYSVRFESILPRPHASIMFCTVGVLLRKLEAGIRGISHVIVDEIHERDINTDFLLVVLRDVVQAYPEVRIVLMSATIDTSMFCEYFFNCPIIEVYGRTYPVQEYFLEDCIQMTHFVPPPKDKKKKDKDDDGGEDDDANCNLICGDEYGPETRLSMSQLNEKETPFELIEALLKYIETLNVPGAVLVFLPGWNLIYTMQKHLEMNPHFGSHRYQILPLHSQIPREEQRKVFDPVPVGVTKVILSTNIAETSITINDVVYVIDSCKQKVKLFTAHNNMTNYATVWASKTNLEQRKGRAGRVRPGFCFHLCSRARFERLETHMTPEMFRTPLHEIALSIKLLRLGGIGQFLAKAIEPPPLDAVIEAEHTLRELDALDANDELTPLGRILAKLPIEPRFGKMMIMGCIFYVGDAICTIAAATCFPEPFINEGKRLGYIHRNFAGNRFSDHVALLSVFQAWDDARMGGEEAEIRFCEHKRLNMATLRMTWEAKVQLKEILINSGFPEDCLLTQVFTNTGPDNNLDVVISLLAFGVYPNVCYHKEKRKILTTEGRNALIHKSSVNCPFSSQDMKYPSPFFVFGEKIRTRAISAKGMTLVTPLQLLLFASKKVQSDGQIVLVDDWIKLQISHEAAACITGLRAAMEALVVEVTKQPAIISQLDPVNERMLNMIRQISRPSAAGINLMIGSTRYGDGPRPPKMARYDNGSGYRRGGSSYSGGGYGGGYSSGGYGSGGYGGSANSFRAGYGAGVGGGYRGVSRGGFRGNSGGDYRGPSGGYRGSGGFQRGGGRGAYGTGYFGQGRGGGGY

On to `CN1CC[C@H](Oc2cnc(-c3cc(C(=O)Nc4cc(Cl)cc(NS(C)(=O)=O)c4)cn3CC(F)(F)F)nc2)C1` [Example 642], for which the “DHX9 Biochemical Max Inhibition” value is 67.3 and the IC50 came to 19.8 nM.

In the case of `Cc1ccnc(OCc2cncc(F)c2)c1-c1cc(C(=O)Nc2cc(Cl)cc(NS(C)(=O)=O)c2)cn1C` [Example 624], the “DHX9 Biochemical Max Inhibition” value was 97.2 and the IC50 was 8.9 nM.

As for `CS(=O)(=O)Nc1cc(Cl)cc(NC(=O)c2c[nH]c(-c3ccccc3)n2)c1` [Example 6], the “DHX9 Biochemical Max Inhibition” value stood at 52.5% and the IC50 worked out at 91.7 nM.

For `CS(=O)(=O)Nc1cc(Cl)cc(NC(=O)c2cc(C(=O)N3CCCCC3)n(-c3ccccn3)c2)c1` [Example 644], the “DHX9 Biochemical Max Inhibition” value is recorded as 71.2 and the IC50 was determined as 95 nM.

In the case of `Cc1sc(C(=O)Nc2cc(Cl)cc(NS(C)(=O)=O)c2)cc1-c1ncc(N2CCC(F)(F)CC2)cc1F` [Example 471], the “DHX9 Biochemical Max Inhibition” value came out at 72.1 and the IC50 worked out at 29.2 nM.

Take `CS(=O)(=O)Nc1cc(Cl)cc(NC(=O)c2cc(C3CCNCC3)cs2)c1` [Example 243]: the “DHX9 Biochemical Max Inhibition” value stood at 73.2% and the IC50 amounted to 92.3 nM.

Turning to `CS(=O)(=O)Nc1cc(Cl)cc(NC(=O)c2cnn(-c3ccccc3COc3cncc(F)c3)c2)c1` [Example 428], the “DHX9 Biochemical Max Inhibition” value is recorded as 68.9 and the IC50 was found to be 70.8 nM.

`COc1cnc(-c2cc(C(=O)Nc3cc(Cl)cc(NS(C)(=O)=O)c3)sc2C)nc1` [Example 341]: the “DHX9 Biochemical Max Inhibition” value came out at 83.05% and the IC50 was determined as 6.2 nM.

As for `COC(=O)N1CCN(c2ccc(-c3cc(C(=O)Nc4cc(Cl)cc(NS(C)(=O)=O)c4)cn3C)nc2)CC1` [Example 596], the “DHX9 Biochemical Max Inhibition” value is given as 72.2 and the IC50 was 18.1 nM.

With `Cn1cc(C(=O)Nc2cc(Cl)cc(NS(C)(=O)=O)c2)cc1-c1ncc(N2CC(F)C2)cn1` [Example 598], the “DHX9 Biochemical Max Inhibition” value is listed as 72.1 and the IC50 came to 16.4 nM.

As for `Cc1cc(C(=O)Nc2cc(Cl)cc(NS(C)(=O)=O)c2)cn1-c1ncc(C(F)(F)F)cn1` [Example 426], the “DHX9 Biochemical Max Inhibition” value was 74.7 and the IC50 is 58.5 nM.

For `CS(=O)(=O)Nc1cc(Cl)cc(NC(=O)c2cc(-c3ccc(F)cn3)n(CCO)c2)c1` [Example 689], the “DHX9 Biochemical Max Inhibition” value is on record as 85 and the IC50 came to 3.6 nM.

In the case of `Cn1cc(C(=O)Nc2cc(Cl)cc(NS(C)(=O)=O)c2)cc1-c1ncccc1OCC1CC1` [Example 584], the “DHX9 Biochemical Max Inhibition” value was found to be 63.5 and the IC50 was 17 nM.

As for `CC(O)c1cc(C(=O)Nc2cc(Cl)cc(NS(C)(=O)=O)c2)cn1-c1ccccn1` (centres unmarked) [Example 287], the “DHX9 Biochemical Max Inhibition” value worked out at 82.6% and the IC50 is 19.1 nM.

Consider `CC(C)(C)Oc1cnc(-c2csc(C(=O)Nc3cc(Cl)cc(NS(C)(=O)=O)c3)c2)nc1` [Example 379], for which the “DHX9 Biochemical Max Inhibition” value was 65.4% and the IC50 amounted to 41.8 nM.

In the case of `CS(=O)(=O)Nc1cc(Cl)cc(NC(=O)c2cnn(-c3cc(N4CCOCC4)ccn3)c2)c1` [Example 91], the “DHX9 Biochemical Max Inhibition” value was found to be 59.7% and the IC50 is 27.9 nM.

As for `Cc1cccnc1-c1csc(C(=O)Nc2cc(Cl)cc(NS(=O)(=O)C(C)C)c2)c1` [Example 373], the “DHX9 Biochemical Max Inhibition” value was found to be 49.9%.

For `CCS(=O)(=O)Nc1cc(Cl)cc(NC(=O)c2cc(-c3ncc(C(F)(F)F)cc3C)c(C)s2)c1` [Example 700], the “DHX9 Biochemical Max Inhibition” value is listed as 85.6 and the IC50 stood at 153 nM.

In the case of `CS(=O)(=O)Nc1cc(Cl)cc(NC(=O)c2cc(-c3ncc(N4CC(C(F)(F)F)C4)cn3)n(CC(F)F)c2)c1` [Example 508], the “DHX9 Biochemical Max Inhibition” value is 67.1 and the IC50 was 96.5 nM.

`Cc1sc(C(=O)Nc2cc(Cl)cc(NS(C)(=O)=O)c2)cc1-c1cn(C2CCOCC2)nn1` [Example 692]: the “DHX9 Biochemical Max Inhibition” value is on record as 81.5 and the IC50 was found to be 2.7 nM.

As to `CS(=O)(=O)Nc1cc(Cl)cc(NC(=O)c2cc(-c3ccc(N4CC(F)(F)C4)cn3)cs2)c1` [Example 487], the “DHX9 Biochemical Max Inhibition” value is 64.3 and the IC50 turned out to be 25.3 nM.

In the case of `CS(=O)(=O)Nc1cc(Cl)cc(NC(=O)c2cnn(-c3ncccc3Oc3cccc(F)c3)c2)c1` [Example 427], the “DHX9 Biochemical Max Inhibition” value was 58.4 and the IC50 came out at 122 nM.

Consider `Cn1cc(C(=O)Nc2cc(Cl)cc(NS(C)(=O)=O)c2)cc1-c1ncc(N2CCC(C(F)(F)F)CC2)cc1F` [Example 472], for which the “DHX9 Biochemical Max Inhibition” value is reported as 60.9 and the IC50 was found to be 211 nM.

On to `CN1CC[C@@H](Oc2cnc(-c3cc(C(=O)Nc4cc(Cl)cc(NS(C)(=O)=O)c4)cn3CC(F)(F)F)nc2)C1` [Example 641], for which the “DHX9 Biochemical Max Inhibition” value was found to be 71 and the IC50 came out at 9 nM.

Take `Cc1cc(C(=O)Nc2cc(Cl)cc(NS(C)(=O)=O)c2)cn1-c1ccc(N2CC3CC3C2)cn1` (centres unmarked) [Example 411]: the “DHX9 Biochemical Max Inhibition” value turned out to be 74.2 and the IC50 was found to be 41.6 nM.

Turning to `Cc1sc(C(=O)Nc2cc(Cl)cc(NS(C)(=O)=O)c2)cc1-c1ncc(N(C)S(C)(=O)=O)cn1` [Example 720], the “DHX9 Biochemical Max Inhibition” value is 72.6 and the IC50 amounted to 25.2 nM.

In the case of `CS(=O)(=O)Nc1cc(Cl)cc(NC(=O)c2cnn(C3CCOCC3)c2)c1` [Example 131, N-(3-chloro-5-(methylsulfonamido)phenyl)-1-(tetrahydro-2H-pyran-4-yl)-1H-pyrazole-4-carboxamide], the “DHX9 Biochemical Max Inhibition” value is 55.9% and the IC50 is 151 nM.

For the compound `CC(C)c1sc(C(=O)Nc2cc(Cl)cc(NS(C)(=O)=O)c2)cc1-c1ccccn1` [Example 233], the “DHX9 Biochemical Max Inhibition” value is given as 80.3% and the IC50 was 45.5 nM.

As for `Cc1cccnc1-c1cc(C(=O)Nc2cc(Cl)cc(NS(C)(=O)=O)c2)cn1CC(F)F` [Example 143, N-(3-chloro-5-(methylsulfonamido)phenyl)-1-(2,2-difluoroethyl)-5-(3-methylpyridin-2-yl)-1H-pyrrole-3-carboxamide], the “DHX9 Biochemical Max Inhibition” value came to 66.8%.

For `CS(=O)(=O)Nc1cc(Cl)cc(NC(=O)c2cnn(-c3ncccc3OCc3ccccc3)c2)c1` [Example 68], the “DHX9 Biochemical Max Inhibition” value was 68.7% and the IC50 came out at 23.8 nM.

`Cc1cc(C(=O)Nc2cc(Cl)cc(NS(C)(=O)=O)c2)cn1-c1ncc(F)cc1-c1cncc(F)c1` [Example 666]: the “DHX9 Biochemical Max Inhibition” value was determined as 78.4 and the IC50 was found to be 121 nM.

`Cc1sc(C(=O)Nc2cc(Br)cc(NS(C)(=O)=O)c2)cc1-c1ccccn1` [Example 23]: the “DHX9 Biochemical Max Inhibition” value was 69% and the IC50 was 3.2 nM.

Regarding `COCc1sc(C(=O)Nc2cc(Cl)cc(NS(C)(=O)=O)c2)cc1-c1ccccn1` [Example 234], the “DHX9 Biochemical Max Inhibition” value is recorded as 84.6% and the IC50 was 9.5 nM.

In the case of `Cc1sc(C(=O)Nc2cc(Cl)cc(NS(C)(=O)=O)c2)nc1-c1ccc(F)cn1` [Example 716], the “DHX9 Biochemical Max Inhibition” value was determined as 55.9 and the IC50 stood at 128 nM.

For `Cc1cc(C(=O)Nc2cc(Cl)cc(NS(C)(=O)=O)c2)cn1-c1ccc(N2C3CCC2CC3)cn1` [Example 523], the “DHX9 Biochemical Max Inhibition” value stood at 64.1 and the IC50 amounted to 31.4 nM.
